Assay results reported in patent US10093679B2, “Amino sulfonyl-based compounds, the preparation method therefor and use thereof” (SUZHOU VIGONVITA LIFE SCIENCES CO., LTD., priority 2014, dated 2018).
Like-named read-outs stand apart in the source and are kept apart here.

Legend:
[1] = test system: maximal electroshock seizure; details: literature value, cited from earlier work
[2] = test system: maximal electroshock seizure; assay: Maximal electroshock seizure (MES) test on mice; assay type: in vivo; details: 100 mg/kg intragastric
Source text: The Maximal Electroshock Seizure Test on Mice
MES (maximal electroshock seizure test) was used to evaluate whether the compounds have an effect against […] and thus to make preliminary evaluation of the efficacy of each compound in treating epilepsy. Multipurpose instrument for pharmacological and biological experiments (mode, YSD-4G) was used to conduct experiments under the condition of convulsive mode, 115V of stimulation voltage, 250 ms of stimulation time, 50 HZ AC voltage. Positive and negative electrodes were used to clamp the left and right ear of the mice, respectively, which were wetted by normal saline. The tonic hind limb extension seizure after stimulation was deemed as judgment standard of grand mal. The mice were randomly divided into groups. The compounds were given by intragastric administration based on the dose of 100 mg/kg.

[3] = Influence on rats' serum total cholesterol and triglyceride; assay type: in vivo, SD rats; set-up: total cholesterol / triglyceride: unit not given here; details: for total cholesterol / triglyceride: rats' serum, 5 weeks after administration
Protocol: Study on the Influence of the Compounds on the Rats' Total Cholesterol and Triglyceride
50 male SD rats with weight of 180˜200 g were randomly divided into groups with 8 in each group. […] 5 weeks after administration, the level of total cholesterol and triglyceride in rats' serum were determined and the results were shown in table 2.

[4] = target: T1, Human carbonic anhydrase II (CA-II) (Homo sapiens, UniProt P00918); assay: Inhibiting effect on carbonic anhydrase (CO2 hydration, bromothymol blue colour change); assay type: biochemical
T1 construct: purchased Sigma
Protocol: Preparation Method of the Reagent
Chromogenic Buffer Solution:
HEPES was dissolved in distilled water to prepare a solution with a concentration of 10 mM; the pH was adjusted to 7.7 with 1 M Tris at 23° C.; bromothymol blue was dissolved in HEPES buffer solution with pH 7.7 to a concentration of 50 mg/L;
Saturated CO2-ice water was prepared by adding dry ice into icy distilled water.
Solution of CA-II enzyme was prepared into a concentration of 2 m/ml, and stored at −20° C.
Tested sample was prepared by using distilled water as solvent with various concentrations.
The time required for changing into yellow was recorded. The time required for the blank tube was recorded as t0, the time required for the standard tube was recorded as ts and the time required for the test tube was recorded as t. (t0−ts)/ts was normal activity of enzyme, and (t0−t)/t was the activity after affecting by the test compound.

| SMILES | Inhibition rate of epileptic seizure ([2]; 0.5 h after administration) | Inhibition rate of epileptic seizure ([2]; 1.5 h after administration) | Inhibition rate of epileptic seizure ([2]; 2 h after administration) | also measured |
| --- | --- | --- | --- | --- |
| NS(=O)(=O)NCc1csc2ccccc12 [JNJ-26990990] | – | – | – | Inhibition rate of epileptic seizure ([1]; 0.5 h): 20%; Inhibition rate of epileptic seizure ([1]; 2 h): 60% |
| CC1(C)O[C@@H]2[C@@H](CO[C@@]3(COS(N)(=O)=O)OC(C)(C)O[C@@H]23)O1 [Topiramate, reference compound] | 37.5% | 37.5% | – | total cholesterol ([3]; 40 mg/kg intragastric): 1.56 ± 0.19; triglyceride ([3]; 40 mg/kg intragastric): 1.45 ± 0.34 |
| NS(=O)(=O)NCc1noc2ccccc12 [Example 3, N-[(benzo[d]isoxazol-3-yl)methyl]-sulfamide] | 88.9% | 66.7% | 77.8% | IC50 [4]: 154 µM; inhibiting effect on carbonic anhydrase compared with reference drugs (in words) [4]: poorer inhibiting effect than topiramate and zonisamide; total cholesterol ([3]; 20 mg/kg intragastric): 1.64 ± 0.28; triglyceride ([3]; 20 mg/kg intragastric): 1.13 ± 0.24; total cholesterol ([3]; 40 mg/kg intragastric): 1.53 ± 0.17; triglyceride ([3]; 40 mg/kg intragastric): 0.99 ± 0.16; total cholesterol ([3]; 80 mg/kg intragastric): 1.32 ± 0.21; triglyceride ([3]; 80 mg/kg intragastric): 0.84 ± 0.06; effect on the level of total cholesterol and triglyceride (in words) ([3]; rats' serum, 20, 40, 80 mg/kg, 5 weeks): significantly decrease |
| CN(C)S(=O)(=O)NCc1noc2ccccc12 [Example 9, N-[(benzo[d]isoxazol-3-yl)methyl]-N′,N′-dimethyl-sulfamide] | 44.4% | – | 11.1% | – |
| NS(=O)(=O)Cc1noc2ccccc12 [Zonisamide, reference compound] | 33.3% | 16.7% | 16.7% | – |
| NS(=O)(=O)NCc1ccsc1Cl [Example 13, N-[(2-chloro-3-thienyl)methyl]-sulfamide] | 37.5% | – | – | – |
| NS(=O)(=O)NCc1noc2cc(Cl)ccc12 [Example 1, N-[(6-chloro-benzo[d]isoxazol-3-yl)methyl]-sulfamide] | 66.7% | – | 50% | – |
| NS(=O)(=O)NCc1noc2cc(F)ccc12 [Example 2, N-[(6-fluoro-benzo[d]isoxazol-3-yl)methyl]-sulfamide] | – | – | 33.3% | – |
